Measured values from PMC7390679 (Bioorganic chemistry, 2020).
Counter-ions that a name gives are not always drawn. Like-named read-outs stand apart in the source and are kept apart here.

Key:
RD cells = assay: Cytotoxicity in RD cells, neutral red method; details: read-out: CC50 in RD cells, mean ± SD of three repeats
CVB3 2C protein = CVB3 2C protein (Coxsackievirus B3, UniProt P03313); assay: Differential scanning fluorimetry; type: binding; details: 1 mM compound, 4.5 μM 2C, DSF
EV-A71 Tainan/4643/98 = assay: CPE antiviral assay, EV-A71 Tainan/4643/98 in RD cells; type: cell-based; details: read-out: EC50 against EV-A71 Tainan
CVB3 = assay: CPE antiviral assay, CVB3 in Vero C1008 cells; type: cell-based
Vero C1008 cells = assay: Cytotoxicity in Vero C1008 cells, neutral red method; type: cell-based; details: read-out: CC50 in Vero C1008 cells
[1] = read-out: EC50 against CVB3, Vero C1008 cells, CPE assay
[2] = Enterovirus B, CVB3, Vero C1008, read-out: EC50 against CVB3

CVB3 2C protein, sequence (P03313 1101-1429): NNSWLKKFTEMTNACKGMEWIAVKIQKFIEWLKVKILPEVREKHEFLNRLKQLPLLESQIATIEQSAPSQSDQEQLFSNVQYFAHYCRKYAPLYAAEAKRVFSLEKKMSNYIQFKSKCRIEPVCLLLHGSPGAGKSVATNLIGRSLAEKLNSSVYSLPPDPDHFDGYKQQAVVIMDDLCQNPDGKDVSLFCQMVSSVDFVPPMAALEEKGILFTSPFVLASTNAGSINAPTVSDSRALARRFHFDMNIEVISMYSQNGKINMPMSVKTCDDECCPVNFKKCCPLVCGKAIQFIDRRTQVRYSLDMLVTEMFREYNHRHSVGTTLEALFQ

| Compound | CC50 (RD cells) | Tm shift of CVB3 2C protein (CVB3 2C protein) | EC50 (EV-A71 Tainan/4643/98; RD cells, CPE assay) | EC50 (CVB3; [1]) | CC50 (Vero C1008 cells) | EC50 (EV-A71 Tainan/4643/98; Enterovirus A, EVA71, RD) | EC50 (CVB3; [2]) |
| --- | --- | --- | --- | --- | --- | --- | --- |
| N=C(N)N [guanidine] | > 1000 µM | 1.77 °C | 902 µM | 224 µM | > 3000 µM |  |  |
| CCCCOc1cc(C(=O)NCCN(CC)CC)c2ccccc2n1 [dibucaine] |  |  |  |  |  | > 10 µM | 1.3 µM |
| COc1ccc(CC(C)NCC(O)c2ccc(O)c(NC=O)c2)cc1 (stereo not drawn) [formoterol] |  |  |  |  | > 300 µM | > 100 µM | 9.9 µM |
| Cc1ccc2c(c1)c1c3n2CCNC3CCC1 (stereo not drawn) [pirlindole mesylate] | 19 µM |  | > 20 µM | 3.6 µM | 40.5 µM |  |  |
| CNCCC(Oc1ccc(C(F)(F)F)cc1)c1ccccc1 (stereo not drawn) [fluoxetine] |  |  |  |  | 11 µM |  |  |
